Reference: publication PMC3119931 (2011)

How the values were obtained:
[1] = system: GRA (B. subtilis xpt-pbuX guanine riboswitch C74U aptamer domain) (RNA, riboswitch) GGACAUAUAAUCGCGUGGAUAUGGCACGCAAGUUUCUACCGGGCACCGUAAAUGUCCGAUUAUGUCC; assay: 2-aminopurine displacement fluorescence competition; details: 100 mM KCl, 10 mM MgCl2, 50 mM Tris-HCl pH 8.3
[2] = system: GRA (B. subtilis xpt-pbuX guanine riboswitch C74U aptamer domain) (RNA, riboswitch) GGACAUAUAAUCGCGUGGAUAUGGCACGCAAGUUUCUACCGGGCACCGUAAAUGUCCGAUUAUGUCC; assay: X-ray crystallography; details: cocrystal structure, 1.6 Å
[3] = system: GRA (B. subtilis xpt-pbuX guanine riboswitch C74U aptamer domain) (RNA, riboswitch) GGACAUAUAAUCGCGUGGAUAUGGCACGCAAGUUUCUACCGGGCACCGUAAAUGUCCGAUUAUGUCC; assay: 2-aminopurine fluorescence titration; details: 100 mM KCl, 10 mM MgCl2; 50 mM Tris-HCl pH 8.3; RNA titrated into 200 nM 2-aminopurine
[4] = 2-aminopurine displaced (KL 140 nM), 243 nM RNA

Nc1cc(N)nc(N)n1
binding constant [1, 4]: 0.014 ± 0.001 mM

CNc1ncnc2[nH]cnc12
binding [2]: yes

Nc1nc(N)nc(Cl)n1
binding ([1]; 2-aminopurine displaced, highest concentration tested 120 μM): no

Nc1nc2[nH]nc(N)n2n1
KD [1, 4]: 370 ± 40 µM

Nc1ncc2[nH]cnc2n1
KL [3]: 140 nM

Nc1ncnc(N)n1
KD [1, 4]: 80 ± 20 µM

Cc1nc(N)nc(N)n1
KD [1, 4]: 110 ± 30 µM
